Consider four molecules from US10000771B2, “Nuclear targeting sequences” (Yeda Research and Development Co. Ltd., priority 2007, dated 2018).

Ends that are not written are not given here.

For assay [1], the system named is CHO cells. The experiment in a line: Microscopy of MEK1-GFP constructs (subcellular localization). The class given is cell-based. On the procedure: FIGS. 14A-14R are photomicrographs illustrating that the NTS motif regulates MEK1 shuttling into the nucleus. CHO cells overexpressing WT-GFP-MEK1 (WT), AAA-GFP-MEK1 (AAA-MEK) and EPE-GFP-MEK1 (EPE-MEK) were starved for 16 hr and treated with LMB (5 ng/ml, 1 hr; LMB), LMB (5 ng/ml, 1 hr)+TPA (250 nM, 15 min; LMB+TPA) or left un treated (NT). Subsequently the cells were fixed, stained with DAPI and visualized by a fluorescent microscope.
(§1) Immunofluorescence Microscopy. Cells were fixed (30 min in 3% paraformaldehyde in PBS or 10 min with ice-cold methanol), followed by 5-min permeabilization with 0.2% Triton X-100 in PBS (23° C.). The fixed cells were sequentially incubated with the appropriate Abs (45 min) followed by rhodamine-conjugated secondary Abs (45 min) and DAPI. Slides were visualized using a fluorescence microscope (Nikon, Japan) at 400× magnifications.
Other proteins that translocate into the nucleus upon stimulation are the MEKs [H. Jaaro, H. Rubinfeld, T. Hanoch, R. Seger, Proc. Natl. Acad. Sci. USA 94, 3742 (1997)]. […] This TPT sequence was also shown to be phosphorylated upon cellular stimulation [S. Matsuda, Y. Gotoh, E. Nishida, J Biol Chem 268, 3277 (Feb. 15, 1993)], and to be involved in protein-protein interaction that can determine subcellular localization [A. Nantel, K. Mohammad-Ali, J. Sherk, B. I. Posner, D. Y. Thomas, J Biol Chem 273, 10475 (Apr. 24, 1998). […]

Assay [2] has as its system SPS domain. The experiment in a line: SPS phosphorylation detected by anti pSPS Ab Western blot. The assay is classed as cell-based. The settings on record: cells pretreated (15 min) prior to EGF 50 ng/ml stimulation. On the procedure:
FIGS. 4A-4I are autoradiographs characterizing SPS phosphorylation using an Ab to the phosphorylated SPS domain. FIG. 4A illustrates an elevation of pSPS detection upon stimulation. COS cells were transfected with WT-GFP-ERK2. Twenty-four hr after transfection, the cells were serum-starved for 16 hr and subsequently treated with the general stimulator VOOH (V, 100 μM Na3VO4 and 200 μM H2O2, 15 min), TPA (T, 250 nM, 15 min), EGF (E, 50 ng/ml for 15 min), or left untreated (NT). The GFP-ERK2 was immunoprecipitated with anti GFP Ab, extensively washed, and the IP was then subjected to Western blotting with anti phospho SPS-ERK (αphoSPS-ERK) and anti general ERK (αgen-ERK) Abs. FIG. 4B is a time course of SPS phosphorylation. COS7 cells overexpressing WT-GFP-ERK2 were serum starved followed by EGF stimulation for the indicated time points. The lysates were then subjected to Western blot analysis as in FIG. 4A. FIGS. 4C-D. GFP-ERK2 was immunoprecipitated from VOOH stimulated (Act) or non-stimulated (NT), transfected COS7 cells as above. The immunoprecipitated protein was then incubated with shrimp's alkaline phosphates (SAP, 15 units, 30 min, 30° C. in the manufacturer digestion buffer), and subjected to Western blot analysis with anti phosphoSPS-ERK (αpSPS; FIG. 4C), anti phosphoTEY-ERK (αpTEY; FIG. 4D), and anti general-ERK Ab (αgen-ERK; FIGS. 4C, D). FIG. 4E. Elevation of anti pSPS Ab immunoreactivity upon stimulation of endogenous ERKs. Following serum starvation COS7 cells were treated with EGF (50 ng/ml) or VOOH (V, 100 μM Na3VO4 and 200 μM H2O2) for the indicated times. SPS phosphorylation was detected using the anti pSPS Abs, and this was compared to the amount of genral ERKs detected by αgERK. FIG. 4F. Specificity of the anti pSPS Ab. COS7 cells overexpressing either GFP-ERK2 or 244-6A mutant were serum starved for 16 hr, and then treated with EGF (50 ng/ml) for 15 min following WB analysis using αpSPS and αgERK Abs. FIG. 4G. TEY phosphorylation is not required for SPS phosphorylation. COS7 cells overexpressing WT-ERK2 or TEY-AAA were treated as described in D. FIG. 4H. COS7 cells were treated with or without UO126 prior (15 min) to EGF (50 ng/ml) stimulation for the indicated times. SPS-phosphorylation was detected using αpSPS and αgERK Abs. FIG. 4I. Phosphorylation of SPS is mediated by ERK autophosphorylation. […] The phosphorylation (^32P-ERK2) of ERK and its mutants was detected by autoradiography. […]
FIG. 9B is an autoradiograph illustrating that stimulation elevates pSPS phosphorylation of 2GFP-SPS construct. […] The total amount of immunoprecipitated 2GFP-SPS was detected with αGFP Ab. […]

The target of assay [3] is T1, importin-7 (Homo sapiens, UniProt O95373).
T1 construct: endogenous in cells; host or cells: HeLa
The experiment in a line: Coimmunoprecipitation with importin-7. The class given is binding. The settings on record: HeLa cells, coimmunoprecipitation, without EGF stimulation. How it is done:
FIGS. 19A-19C are autoradiographs illustrating that phospho-SPS interacts with importin-7 and releases Nup153c binding without involvment of importin-β. […]. Interaction of ERK2 with Importin-7 is enhanced by EGF stimulation and EPE mutation. HeLa cells overexpressing WT-ERK (WT), ERK-APA (APA), ERK-EPE (EPE) or GFP were serum starved and treated with EGF (50 ng/ml, 10 min). The extracts of the treated cells were then subjected to coimmunoprecipitation using A/G beads pre-conjugated with anti GFP Ab and mild washes. The coimmunoprecipitated importin-7 (first panel) and importin-β (third panel), as well as their loading amounts (panels 2 and 4 respectively) were determined by WB using anti importin-7 (αImp7) and importin-β (αImpβ) Abs. The equal amount of immunoprecipitated ERKs was determined with anti GFP (αGFP; IP) Ab. FIG. 19B. Interaction of 2GFP-SPS and its mutants with importin-7. HeLa cells overexpressing 2GFP, 2GFP-SPS, 2GFP-APA and 2GFP-EPE constructs were subjected to coimmunoprecipitation as described in FIG. 19A (without EGF stimulation). FIG. 19C. Interaction of NUP153 with WTERK2 and its APA and EPE mutants. NUP153c is elevated in APA-ERK2, but reduced in EPE-ERK2. Immunoprecipitated and stringently washed WT-ERK2 (WT), APA-ERK2 (APA) or ERK2 from […] cells pre-treated with or without TPA (250 nM, 15 min) were incubated with 0.5 μg recombinant His-Nup153c. This was followed by mild washing, and the beads were then subjected to Western blot analysis using anti His (αHis) and anti αGFP Abs.
Immunoprecipitation. Cellular extracts of stimulated transfected cells, were incubated with anti-GFP antibody preconugated to A/G beads (Santa Cruz; (2 hr, 4° C.). Subsequently, the beads were washed twice with HNTG buffer and once with 0.5 M LiCl. The immunoprecipitates were subjected either to Western blotting as described above or to an in vitro phosphatase assay as described under Results.

Assay [4] relates to endogenous ERKs. The experiment in a line: Effect of 2GFP chimeras on nuclear translocation of endogenous ERKs. The class given is cell-based. The settings on record: CHO cells overexpressing the chimera, TPA 250 nM, 15 min. How it is done: FIGS. 10A-10X illustrate the effects of the 2GFP chimeras on the nuclear translocation of endogenous ERKs. CHO cells overexpressing 2GFP, 2GFP-SPS, 2GFP-APA and 2GFP-EPE were serum starved and treated with or without TPA (250 nM, 15 min). Subsequently, the cells were fixed and stain with anti-ERK2 (C-14) Ab and with DAPI.
as §1

Assay [5] deals with CHO cells. The experiment in a line: Fluorescence microscopy of 2GFP chimeras (subcellular localization). The assay is classed as cell-based. The settings on record: 24 hr post transfection, serum-starved. How it is done: FIGS. 8A-8H are photomicrographs illustrating that SPS, APA, and EPE peptides fused to a 2GFP chimera modify its subcellular localization. CHO cells were grown on cover slips and transfected with 19 amino acid from the kinase insert domain of ERK2 including the SPS region (GFP-SPS) fused to a 2GFP chimera and with the same chimeras with substitution of the Ser to Ala (GFP-APA) or substitution to Glu (GFP-EPE). Twenty-four hr later, the cells were serum-starved for 16 hr, fixed, stained with DAPI and visualized by a fluorescence microscope.
as §1
To validate the general importance of the SPS domain, a 19 amino acid sequence surroundings the SPS or the APA and EPE mutants was fused to a dimer of GFP proteins (2GFP). Cellular distribution of the chimeras was detected in CHO cells 24 hr post transfection of the GFP constructs.

The test system of assay [6] is COS7 cells. The experiment in a line: Subcellular fractionation of 2GFP chimeras. The assay is classed as cell-based. How it is done:
FIG. 9A is an autoradiograph illustrating the subcellular fractionation of transfected SPS, APA, and EPE peptides fused to a 2GFP in COS7 cells. Western blot analysis of aliquots of the fractions were stained with anti GFP Ab to detect the different chimaras, and with anti tubulin and anti c-Jun Abs as markers for the cytoplasmic and nuclear fractions respectively.
Cellular Fractionation: Transfected COS7 cells were starved (0.1% FBS) for 16 h, after which they were washed with ice-cold PBS, suspended in ice-cold buffer H, and centrifuged (12,000×g, 5 min). Then, the nuclear and cytosolic fractions were isolated as described [H. Rubinfeld, T. Hanoch, R. Seger, J. Biol. Chem. 274, 30349 (1999)]. Briefly, the pellets were suspended in 0.1% NP-40 followed by centrifugation (12,000×g, 5 min). The supernatant, containing the cytosolic fraction, was boiled in sample buffer. The pellet was suspended in extraction buffer (420 mM Nacl, 50 mM β-glycerophosphate, 0.5 mM Na3VO4, 1.5 mM MgCl2, 0.2 mM EDTA, 1 mM DTT, 25% glycerol), incubate on ice for 10 min, sonicated (50 W, 2×7 sec), and centrifuged (12,000×g, 5 min). The supernatant, containing the nuclear fraction, was subjected to Western blot.

T1 sequence (O95373 whole entry): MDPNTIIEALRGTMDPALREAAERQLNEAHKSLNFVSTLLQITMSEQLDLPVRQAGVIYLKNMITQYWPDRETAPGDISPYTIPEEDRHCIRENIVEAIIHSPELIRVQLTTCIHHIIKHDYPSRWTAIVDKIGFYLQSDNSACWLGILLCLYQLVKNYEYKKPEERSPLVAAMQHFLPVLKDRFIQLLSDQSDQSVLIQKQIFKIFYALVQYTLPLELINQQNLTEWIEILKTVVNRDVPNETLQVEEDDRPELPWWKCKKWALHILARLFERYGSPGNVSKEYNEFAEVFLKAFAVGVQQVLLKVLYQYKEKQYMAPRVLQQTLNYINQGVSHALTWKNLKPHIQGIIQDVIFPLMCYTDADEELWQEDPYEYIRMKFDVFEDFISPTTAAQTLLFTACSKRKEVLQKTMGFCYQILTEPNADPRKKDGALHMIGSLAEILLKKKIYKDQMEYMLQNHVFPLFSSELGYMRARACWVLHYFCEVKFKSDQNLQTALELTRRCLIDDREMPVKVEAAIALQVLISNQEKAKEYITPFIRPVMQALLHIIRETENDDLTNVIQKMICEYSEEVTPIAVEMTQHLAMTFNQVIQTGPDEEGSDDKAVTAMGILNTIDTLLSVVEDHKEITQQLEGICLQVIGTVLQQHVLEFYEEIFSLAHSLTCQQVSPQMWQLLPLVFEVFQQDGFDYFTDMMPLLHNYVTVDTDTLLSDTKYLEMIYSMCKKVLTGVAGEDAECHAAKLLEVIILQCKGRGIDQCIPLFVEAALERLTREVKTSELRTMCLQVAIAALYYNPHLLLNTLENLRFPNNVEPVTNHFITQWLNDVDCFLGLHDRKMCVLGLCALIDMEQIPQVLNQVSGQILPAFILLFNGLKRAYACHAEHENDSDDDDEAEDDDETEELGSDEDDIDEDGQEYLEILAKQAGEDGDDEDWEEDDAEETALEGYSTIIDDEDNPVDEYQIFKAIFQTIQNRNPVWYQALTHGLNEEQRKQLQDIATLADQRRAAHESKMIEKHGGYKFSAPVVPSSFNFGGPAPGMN

For “EPE-MEK1: GFP-MEK1 with residues 386 and 388 replaced with Glu”, the “nuclear accumulation after TPA stimulation” value in assay [1] (LMB 5 ng/ml + TPA 250 nM, 15 min) was “localized in the nucleus even without stimulation”. For the same molecule, the “nuclear translocation after leptomycin B” value in assay [1] (LMB 5 ng/ml, 1 hr) is reported as “increased”.
`N#CC(=C(/N)Sc1ccccc1N)/C(C#N)=C(\N)Sc1ccccc1N` [U0126, reference compound]: in assay [2], the “anti pSPS Ab reaction with GFP-ERK2 after inhibitor pretreatment” value is given as “did not react”.
Take “2GFP-APA: 2GFP-WT with the Ser residues in the SPS domain mutated to Ala (LDQLNHILGILGAPAQEDL; also: fused to 2GFP (large carrier))”: the “interaction of 2GFP constructs with importin-7” value in assay [3] is “reduced this interaction”. For the same molecule, in assay [4], the “inhibition of TPA-induced translocation of endogenous ERKs” value is listed as “more so”. Also, in assay [5], the cellular distribution result is “mainly in the cytoplasm and perinuclear region”. The “localized in the nucleus” value in assay [6] worked out at 3%.
On to “2GFP-EPE: 2GFP-WT with the Ser residues in the SPS domain mutated to Glu (LDQLNHILGILGEPEQEDL; also: fused to 2GFP (large carrier))”, for which the “interaction of 2GFP constructs with importin-7” value in assay [3] is “elevated it”. Besides, in assay [5], the cellular distribution result is “mainly in the nucleus”. Moreover, the “localized in the nucleus” value in assay [6] was determined as 90%.
